Laboratory results taken from article PMC4364341, “NBD delivery improves the disease phenotype of the golden retriever model of Duchenne muscular dystrophy” (Skeletal Muscle, 2014).

Columns and labels:
[1] = dog, in vivo, iv, 10 mg/kg
Protocol: In addition to efficacy, we were interested in examining the safety profile of NBD, since long-term dosing in any animal model had yet to be performed. Blood samples at pre-dose, mid dose, and terminal dose were obtained for hematology and serum chemistry analysis. […] Supplementary file 2044-5040-4-18-S2.jpeg: Additional file 2: Figure S2 Hematologic changes in NBD-treated dogs. Serum was prepared from blood samples obtained at indicated time points prior to and following dosing with NBD in wild type and GRMD dogs. Serum samples were analyzed for complete blood counts (CBC). The graphs show results for white blood cells, red blood cells, and platelet counts. Click here for file Supplementary file 2044-5040-4-18-S3.jpeg: Additional file 3: Figure S3 Clinicopathologic changes in NBD-treated dogs. Serum was prepared from blood samples obtained at indicated time points prior to and following dosing with NBD in wild type and GRMD dogs. Serum samples were analyzed for ALT, AST, GGT, bilirubin, creatinine, potassium, and creatine kinase. Click here for file

[2] = tested on: utrn-/-;mdx double knock out (dko) mice; conditions: NBD-treated dko mice; cited from earlier work
Source text: Our ability to collectively achieve such a benefit in GRMD dogs, as well as in mdx diaphragm, [9, 13] and dko hearts, supports the pre-clinical efficacy of NBD. Due to interspecies differences among mice, dogs, and humans, it is difficult to say e ...

mdx mice = conditions: cited from earlier work
Source text: […] […] Our ability to collectively achieve such a benefit in GRMD dogs, as well as in mdx diaphragm, [9, 13] and dko hearts, supports the pre-clinical efficacy of NBD. Due to interspecies differences among mice, dogs, and humans, it is difficult to say e ...

GRMD dogs = test: Joint and pelvic angles, GRMD dogs; assay type: in vivo, dog; conditions: n = 6
Source text: We previously reported that 6-month-old GRMD dogs have abnormally acute (contracted) TTJ angles while positioned in dorsal recumbence for force measurements. Other investigators have subsequently described methods to measure joint angles at maximal flexion and extension, with associated range of motion, in wild type dogs. The method of Jaegger et al.[29] is now utilized to measure pelvic limb tibiotarsal (hock, ankle), stifle (knee), and coxofemoral (hip) joint angles for ongoing natural history and preclinical trials in our laboratory. In each case, dogs were anesthetized (above) and positioned in lateral recumbence. Angles at rest, maximal flexion, and maximal extension were measured. To objectively characterize the cranioventral shift of the pelvis typically seen in GRMD dogs, we also measured the pelvic angle formed by two lines extending cranially from the tuber ischium, one drawn parallel to the lumbar spine and the other extending to the midpoint of the tuber coxae.

wild type and GRMD dogs = conditions: dog, in vivo
Protocol: NBD peptide (TALDWSWLQTE) fused to an Antennapedia protein transduction domain [9] was generated using an ABI 430A solid-phase peptide synthesizer (Applied Biosystems, Foster City, CA, USA) as previously described. NBD solutions (10 mg/mL) for the canine studies were prepared weekly. Needed volumes were calculated based on the current dog body weights, plus estimated weekly gain averages. Compound was weighed on a laboratory balance to the nearest 0.1 g and reconstituted in sterile water. Solution was then sterile-filtered through 0.22 μm filters into a sterile fluid administration bag and refrigerated at 4°C until use. […] Heart and respiratory rate, mucous membrane color, capillary refill time, and body temperature were monitored throughout the perfusion. […] The syringe pump was initially programed to administer the calculated volume over 10 min, but this was extended to 30 min when reactions were seen. Blood pressure was recorded prior to start of perfusion, at 5-min intervals throughout perfusion, and post-perfusion (Cardell® 9405 Multiparameter Monitor, Midmark Corporation, Versailles, OH, USA). Dogs were monitored for adverse reactions throughout the perfusion and for up to 30 min after completion.

[3] = NBD group, age 2 months (start of treatment)
[4] = age 6 months, NBD 10 mg/kg IV 3x weekly for 4 months

## TALDWSWLQTE [NBD, NBD peptide (…) fused to an Antennapedia protein transduction domain]
[1]
  Hematology and serum chemistry analysis: no adverse effects
[2]
  Functional response, dko heart: improved back to wild type
Mdx mice; IP 3x per week, concentrations of NBD reduced from 10 to 2 mg/kg
  Efficacy on dose reduction: efficacy was lost
Mdx mice; NBD-treated mdx mice
  Functional improvement, mdx diaphragm: 43%
GRMD dogs; [3]
  Hip (Resting) angle: 103.7 ± 2.94
  Maximum Hip Flexion: 44.67 ± 5.47 °
  Pelvic Angle: 41.00 ± 6.81 °
  TTJ Angle: 157.00 ± 9.80 °
GRMD dogs; [4]
  Hip (Resting) angle: 100.2 ± 6.01^2
  Maximum Hip Flexion: 46.33 ± 3.50^2 °
  Pelvic Angle: 36.83 ± 5.12^2 °
  TTJ Angle: 160.17 ± 8.84 °
Wild type and GRMD dogs
  Blood pressure during administration: decreased
Wild type and GRMD dogs; iv, 10 mg/kg
  Onset of infusion reactions (time of treatment): approximately 1 month
